# In PMC11420944, “Targeted Degradation of Protein Kinase A via a Stapled Peptide PROTAC” (ACS Chemical Biology, 2024):
# Experiments:
# PKAc = target: T1, PKAc (Homo sapiens, UniProt P17612); assay: PKAc degradation in cells, Western blot densitometry; format: cell-based; settings: MDA-MB-231 cells, n = 3
# T1 construct: degrade native PKAc in cells, MDA-MB-231 cells were used; endogenous in cells; host or cells: MDA-MB-231 (ATCC HTB-26)
# Excerpt: To determine whether StIP-TAC could successfully degrade native PKAc in cells, MDA-MB-231 cells were used. […] We hypothesized this lack of a statistically significant effect may be a result of the compound’s relatively large molecular weight (∼3 kDa) and potentially limited cellular permeability, a common limitation of PROTAC molecules.[37]−[40] […] Based on this study, we aimed to improve delivery of our compound using SAINT Protein. […] To confirm that StIP-TAC-mediated degradation of PKAc resulted from recruitment of the proteasome, we incubated cells with 10 μM StIP-TAC alongside 10 μM proteasomal inhibitor MG-132 and subsequently screened for PKAc protein levels.
# Cell-based PROTAC activity assays. MDA-MB-231 cells were grown on 6-well tissue culture plates (BD Biosciences). Cells were serum-starved for 24 hours in serum-free RPMI with penicillin/streptomycin, glucose, and L-glutamine. StIP-TAC treatment was prepared with SAINT-Protein reagent according to manufacturer protocol (Synvolux) and added to cells at a final concentration of 10 µM for 5 hours. For phosphorylation studies, cells were additionally stimulated with 50 µM forskolin for 30 minutes before harvesting. For H89-treated cells, 50 μM H89 was added 30 minutes before stimulation with forskolin. For degradation studies, cells were co-treated with 10 μM MG-132 (Selleck Chemicals) alongside StIP-TAC and DMSO treatments for the duration of the 5-hour experiment. For studies examining the NAE-mediated activation of CRL, cells were co-treated with 6 μM MLN4924 (Cayman Chemical) alongside StIP-TAC for the duration of the 5-hour experiment. For studies examining potential effects of StIP-3 on PKAc protein levels, cells were treated with 10 μM StIP-3 with or without SAINT-Protein reagent for 5 hours. Cells were harvested in Laemmli sample buffer, boiled for 10 minutes and protein levels were analyzed via western blotting. For control experiments, cells were incubated for 5 hours with an equivalent volume of DMSO or SAINT-Protein to the above studies, with or without forskolin stimulation.
# To assess PKA degradation, anti-PKAc (1:1000, BD Biosciences) and anti-GAPDH (1:1000, Proteintech) primary antibodies were used. To assess PKA substrate phosphorylation, anti-phospho serine/threonine PKA substrate (1:1000, Cell Signaling Technology) and anti-tubulin (1:1000, Cell Signaling Technology) primary antibodies were used. To assess phosphorylation of VASP, anti-phospho VASP (1:1000, Cell […]
# Signaling Technology) and anti-GAPDH (0.5 μg/mL, DSHB) primary antibodies were used. Incubation with primary antibodies was followed by incubation with anti-mouse […]
# (§1) Biosciences). Western blot fluorescence detection was performed using a LI-COR Odyssey Fc imaging system. Data analysis was performed using GraphPad Prism […]
# Table S1. Peptide and PROTAC sequences, expected and observed masses determined via HPLC-MS. Asterisks (*) represent residues of (S)-2-(4-pentenyl)- […]
# (1 picture or pasted object on this page, not shown here)
# (§2) Figure S3: Western blots for PKA degradation. Experiments were performed in triplicate (n=3) in low passage number MDA-MB-231 cells (ATCC HTB-26). Following t = 24 hour starvation in serum-free RPMI media, cells were treated for t = 5 hours with DMSO, SAINT-Protein Lipid reagent alone, 10 µM StIP-TAC, or 10 µM StIP-TAC incubated with SAINT-Protein Lipid reagent per manufacturer instructions. […]
# [1] = system: phospho serine/threonine PKA substrate; assay: PKA substrate phosphorylation in forskolin-stimulated cells, Western blot; format: cell-based; settings: MDA-MB-231 cells, 10 µM, 5 h, 50 µM forskolin 30 min, n = 3
# Procedure: (§3) Next, we sought to assess whether StIP-TAC could also downregulate PKAc signaling in cells. For this experiment, cells were treated with forskolin to stimulate PKAc activity. Cells were either treated with DMSO, the small molecule PKAc inhibitor H89, StIP-TAC alone, or StIP-TAC with SAINT protein (Figure 4; Figure S7). […] (Figure 4C,D). A known PKA substrate, vasodilator-stimulated phosphoprotein (VASP),[42] was also probed for PKA-mediated phosphorylation (Figure S8).
# Cell-based PROTAC activity assays. MDA-MB-231 cells were grown on 6-well tissue culture plates (BD Biosciences). Cells were serum-starved for 24 hours in serum-free RPMI with penicillin/streptomycin, glucose, and L-glutamine. StIP-TAC treatment was prepared with SAINT-Protein reagent according to manufacturer protocol (Synvolux) and added to cells at a final concentration of 10 µM for 5 hours. For phosphorylation studies, cells were additionally stimulated with 50 µM forskolin for 30 minutes before harvesting. For H89-treated cells, 50 μM H89 was added 30 minutes before stimulation […]
# with forskolin. […]
# Cells were harvested in Laemmli sample buffer, boiled for 10 minutes and protein levels were analyzed via western blotting. For control experiments, cells were incubated for 5 hours with an equivalent volume of DMSO or SAINT-Protein to the above studies, with or without forskolin stimulation.
# To assess PKA degradation, anti-PKAc (1:1000, BD Biosciences) and anti-GAPDH (1:1000, Proteintech) primary antibodies were used. To assess PKA substrate phosphorylation, anti-phospho serine/threonine PKA substrate (1:1000, Cell Signaling […]
# Incubation with primary antibodies was followed by incubation with anti-mouse […]
# as §1
# as §2, with “S7:” for “S3:”, “substrate phosphorylation.” for “degradation.”, “instructions. For forskolin-stimulated treatments, cells were incubated for 30 minutes with 50 µM forskolin” for “instructions.”
# prior to harvesting in Laemmli sample buffer. For H89-inhibited treatments, cells were incubated for 30 minutes prior to forskolin stimulation with 50 µM H89. Lysates were run via SDS-PAGE and Western blotting performed anti-phospho serine/threonine PKA substrate (1:1000, Cell Signaling Technology) and anti-tubulin (1:1000, Cell Signaling Technology) primary antibodies.
# phospho VASP = assay: VASP phosphorylation in forskolin-stimulated cells, Western blot; format: cell-based; settings: MDA-MB-231 cells, 10 µM, 5 h, 50 µM forskolin 30 min, n = 3
# Procedure: as §3
# Cell-based PROTAC activity assays. MDA-MB-231 cells were grown on 6-well tissue culture plates (BD Biosciences). Cells were serum-starved for 24 hours in serum-free RPMI with penicillin/streptomycin, glucose, and L-glutamine. StIP-TAC treatment was prepared with SAINT-Protein reagent according to manufacturer protocol (Synvolux) and added to cells at a final concentration of 10 µM for 5 hours. For phosphorylation studies, cells were additionally stimulated with 50 µM forskolin for 30 minutes before harvesting. For H89-treated cells, 50 μM H89 was added 30 minutes before stimulation with forskolin. For degradation studies, cells were co-treated with 10 μM MG-132 (Selleck Chemicals) alongside StIP-TAC and DMSO treatments for the duration of the 5-hour experiment. […] Cells were harvested in Laemmli sample buffer, boiled for 10 minutes and protein levels were analyzed via western blotting. […]
# Biosciences). Western blot fluorescence detection was performed using a LI-COR Odyssey Fc imaging system. […]
# Table S1. Peptide and PROTAC sequences, expected and observed masses determined via HPLC-MS. […]
# Figure S8: StIP-TAC inhibits phosphorylation of the PKA substrate VASP. […] (B) Densitometric quantification of Western blots […]
# reduction in phosphorylated VASP in cells treated with H89 and StIP-TAC with SAINT Protein reagent. Quantification was performed via Li-COR Image Studio. **p=0.010; ***p<0.001; ns, not significant as assessed by one-way ANOVA and Bonferroni’s multiple comparisons test. […]
substance,measurement,setting,value
"Cereblon Ligand 1-PEG8-*TTY*DFIASGRTGRRNAI (sidechain bridge or staple) [StIP-TAC, StIP-3-derived stapled peptide conjugated to thalidomide-derived Cereblon Ligand 1 via a PEG-8 linker]",PKAc protein levels on co-treatment with NAE inhibitor MLN4924,"PKAc; 10 µM with SAINT Protein, plus 6 µM MLN4924, 5 h",rescued PKAc protein to baseline levels
same,PKAc protein levels on co-treatment with proteasomal inhibitor MG-132,"PKAc; 10 µM with SAINT Protein, plus 10 µM MG-132, 5 h",rescued PKAc protein to baseline levels
same,reduction of PKAc protein levels vs vehicle control,"PKAc; 10 µM, 5 h, with SAINT Protein lipid reagent, normalized to GAPDH",approximately 50%
same,"PKAc degradation, forskolin stimulated vs unstimulated","PKAc; 10 µM, 5 h, with or without 30 min 50 µM forskolin",no significant difference
same,PKAc protein levels vs vehicle control,"PKAc; 10 µM, 5 h, without SAINT Protein lipid reagent, normalized to GAPDH",no significant reduction
same,cell permeability,cells,no longer permeable
same,PKAc substrate phosphorylation,[1]; with SAINT Protein,significant reduction in substrate phosphorylation to near basal levels
same,"phosphorylation of the approximately 55, 60, 80, and 100 kDa substrate bands",[1]; with SAINT Protein,statistically significant reduction
same,PKAc substrate phosphorylation,[1]; without SAINT Protein,did not yield a significant reduction
same,VASP phosphorylation,phospho VASP; with SAINT-Protein,significant inhibition
same,VASP phosphorylation,phospho VASP; without SAINT Protein,did not result in a significant reduction
